Reference: US11993576B2, “N-benzyl-N-arylsulfonamide derivative and preparation and use thereof” (Hangzhou Yirui Pharmaceutical Technology Co., Ltd, priority 2019, dated 2024)
“Also recorded” adds a separate entry of the source.

Experiments:
human Kv1.3 [1] = target: T1, human Kv1.3 (Homo sapiens, UniProt P22001); test: Conventional patch clamp assay of inhibitory activity against Kv1.3; assay type: cell-based; details: conventional patch-clamp method; CHO-K1 cells stably expressing human Kv1.3
Description: II. Conventional Patch Clamp Assay of Inhibitory Activity Against Kv1.3
In order to compare the influence of different assay methods on the inhibitory activity of a compound, the conventional patch clamp method was used to assay the inhibitory activities of compounds 21, 37, 44, 61 against Kv1.3. The principle and method for the conventional patch clamp method can be found in Grissmer et al. [Grissmer et al. Molecular Pharmacology 1994, 45:1227-1234].
(§1) Inhibitory activity of the compounds against Kv1.3 was assessed using a CHO-K1 recombinant cell line stably expressing human Kv1.3 (Charles River, California). The cells were cultured in an F-12K culture medium containing 5% calf serum (Invitrogen, Carlsbad.ca) in an incubator at 37° C. and under air humidity with 6% CO2.
(§2) During the experiment, adherent cells were placed in a recording chamber under an inverted microscope. All the experiments were performed at room temperature. Each of the cells used itself as the control.
(§3) The test compounds were formulated to their final concentrations on the day of assay, and then dissolved in an extracellular fluid. The extracellular fluid (mM) was: NaCl, 137; KCl, 4; CaCl2, 1.8; MgCl2, 1; HEPES, 10; glucose 10; pH 7.4 (NaOH titration). All the solutions of the test compounds and the control compounds contained 0.3% of DMSO.
(§4) Each of the compounds was perfused by a gravity-driven perfusion system. At least two cells were tested for each of the concentrations of a compound. After the current was stable, the blocking effect of the compounds was calculated by comparing the change in the current before and after administration of the compounds. 1000 μM 4-AP was used as a positive control.
(§5) The cells were transferred to a perfusion chamber, and were perfused with the extracellular fluid. Intracellular fluid (mM): K-aspartate, 130; MgCl2, 5; EGTA 5; HEPES, 10; pH 7.2 (KOH titration). The intracellular fluid was stored in a small amount in a refrigerator at −80° C. in batches, and was thawed on the day of the experiment. The electrodes were drawn by PC-10 (Narishige, Japan). A whole-cell patch-clamp recording was performed, with the noise being filtered by one-fifth of the sampling frequency.
(§6) The cells were clamped at −80 mV and then depolarized to 0 mV with square waves lasting for 2 seconds to obtain a Kv1.3 current. This process was repeated every 20 seconds. The maximum current elicited by the square waves was detected. After the maximum current became stable, the test compounds were perfused. After the reaction was stable, the blocking strength was calculated.
Data was collected and analyzed using pCLAMP 10 (Molecular Devices, Union City, CA). A stable current meant a current which varies within a limited range over time. […]

human Kv1.3 [2] = target: T1, human Kv1.3; test: IonWorks automated patch clamp assay of inhibitory activity against Kv1.3; assay type: cell-based; details: automated patch clamp method; CHO-K1 cells stably expressing human Kv1.3
Method in brief: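 CHO-K1 cells stably expressing human Kv1.3, perforated-patch IonWorks Quattro (amphotericin B 200 μg/mL internal), external solution pH 7.3. Compounds 0.00384-30 μM final, 0.3% DMSO, 600 s incubation; four 1 s pulses to 0 mV from −80 mV. Inhibition from peak current ratio after/before compound.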

human Kv1.5 = human Kv1.5 (Homo sapiens, UniProt P22460); test: Conventional patch clamp assay of inhibitory activity against Kv1.5; assay type: cell-based; details: conventional patch-clamp method; CHO-K1 cells stably expressing human Kv1.5
Procedure: III. Conventional Patch Clamp Assay of Inhibitory Activity Against Kv1.5
The principle and method for the conventional patch clamp method can be found in Grissmer et al. [Grissmer et al. Molecular Pharmacology 1994, 45:1227-1234].
as §1, with “a” for “the”, “Kv1.5” for “Kv1.3”, “Calif.).” for “California).”
as §2, §3
as §4, with “compounds.” for “compounds. 1000 μM 4-AP was used as a positive control.”
1000 μM 4-AP was used as a positive control.
as §5
as §6, with “to 20” for “to 0”, “a Kv1.5” for “a Kv1.3”
Data was collected and analyzed using pCLAMP 10 (Molecular Devices, Union City, CA). A stable current meant a current which varies within a limited range over time. The value of the stable current was used to calculate the effect of a compound at this […].

[3] = test system: rat model of psoriasis induced by imiquimod; test: Rat model of psoriasis induced by imiquimod; assay type: in vivo; details: Wista female rats; for pathological analysis of skin (HE×100): skin lesions of the back collected on day 11, FIG. 3
Procedure: V. Effects of Compound 24 on a Rat Model of Psoriasis Induced by Imiquimod
SPF Wista female rats with body weight of around 200 g were used.
Dexamethasone (DXMS) sodium phosphate injection, 5 mg/ml/injection (Shiyao Yinhu Pharmaceutical Co., Ltd.); 5% imiquimod cream, 0.25 g/pack (Sichuan MED-SHINE Pharmaceutical Co., Ltd.); 3×10^6 U recombinant human interferon α-2a injection, 1.0 ml/vial (Shenyang Sunshine Pharmaceutical Co., Ltd.); vehicle and negative control: acetone/DMSO 9:1 (Vehicle).
3.1 The animals were randomly divided into 6 groups based on body weight with 10 animals per group: normal control group, model control group, positive control group (dexamethasone sodium phosphate injection 5 mg/mL), 1% Compound 24 group, 0.3% Compound 24 group and 0.1% Compound 24 group.
3.2 Modelling and administration: after adaptive feeding for several days, for each of the rats, hair in central area of the back (2 cm×2 cm) was shaved, and then the surface short hair was shaved with mild depilatory cream, washed and dried. If hair on the back grew out again during the experiment, the hair was removed with a razor. Every morning, for the rats in model control group and administration groups, 5% imiquimod cream was evenly applied on the back at 20 mg/cm^2 (0.25 g/pack, for 3 rats), and after 10 min, recombinant human interferon α-2a injection was injected intraperitoneally at 10,000 U/500 g; for the normal control group, the rats were not treated, once a day, for 10 days. In the afternoon, for the rats in the administration groups, drugs were applied at a corresponding dose (drugs with corresponding concentrations were applied on the back at 100 μL/rat, twice, 50 μL each time) once a day for 10 days.
3.3 Psoriasis Area and Severity Index (PASI) score: according to PASI scoring standard, a score of 0-4 was given for erythema, scale and epidermal thickening of infiltration in the lesional skin of rats. The scoring criteria was as follows: 0, none; 1, mild; 2, moderate; 3, severe; 4, extremely severe. For the rats in each of the groups, the scores were averaged and changes in skin lesions of the rats were observed.
3.4 HE staining: after completion of modeling (on day 11), the tissues with skin lesions on the back of rats were collected, fixed with 4% neutral formaldehyde, embedded in paraffin, and sectioned. After HE staining, changes in skin histomorphology were observed under a microscope, and Baker scoring was performed. […]
3.5 Statistical Methods: all data was expressed as mean±standard deviation (x±s). […]

[4] = test system: SCID mouse psoriasis xenograft model; details: injection or topical skin application; cited from earlier work
[5] = test system: allergic contact dermatitis; details: applied topically, rat; cited from earlier work
[6] = test system: rat model of autoimmune glomerular basal membrane nephritis; details: intraperitoneal injection; cited from earlier work
EAE = details: in vivo; cited from earlier work
[7] = test system: Th2 TEM cells with highly expressed Kv1.3; details: ovalbumin-induced asthma, rat; cited from earlier work

T1 sequence (P22001 whole entry): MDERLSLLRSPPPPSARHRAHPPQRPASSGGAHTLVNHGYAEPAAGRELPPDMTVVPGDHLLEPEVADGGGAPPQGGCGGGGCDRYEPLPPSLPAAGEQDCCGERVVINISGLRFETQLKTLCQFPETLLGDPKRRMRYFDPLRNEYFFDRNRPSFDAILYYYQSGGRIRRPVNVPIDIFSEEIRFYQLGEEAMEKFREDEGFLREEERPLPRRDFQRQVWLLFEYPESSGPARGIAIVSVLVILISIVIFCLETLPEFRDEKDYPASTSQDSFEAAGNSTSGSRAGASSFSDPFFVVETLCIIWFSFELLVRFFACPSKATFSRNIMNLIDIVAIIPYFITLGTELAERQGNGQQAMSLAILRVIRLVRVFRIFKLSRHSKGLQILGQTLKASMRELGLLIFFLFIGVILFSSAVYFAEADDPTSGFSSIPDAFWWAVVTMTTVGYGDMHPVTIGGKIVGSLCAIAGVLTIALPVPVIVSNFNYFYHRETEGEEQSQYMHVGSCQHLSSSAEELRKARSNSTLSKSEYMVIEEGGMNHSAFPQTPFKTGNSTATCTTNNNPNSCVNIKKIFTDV
Chain of human Kv1.5 (P22460 whole entry): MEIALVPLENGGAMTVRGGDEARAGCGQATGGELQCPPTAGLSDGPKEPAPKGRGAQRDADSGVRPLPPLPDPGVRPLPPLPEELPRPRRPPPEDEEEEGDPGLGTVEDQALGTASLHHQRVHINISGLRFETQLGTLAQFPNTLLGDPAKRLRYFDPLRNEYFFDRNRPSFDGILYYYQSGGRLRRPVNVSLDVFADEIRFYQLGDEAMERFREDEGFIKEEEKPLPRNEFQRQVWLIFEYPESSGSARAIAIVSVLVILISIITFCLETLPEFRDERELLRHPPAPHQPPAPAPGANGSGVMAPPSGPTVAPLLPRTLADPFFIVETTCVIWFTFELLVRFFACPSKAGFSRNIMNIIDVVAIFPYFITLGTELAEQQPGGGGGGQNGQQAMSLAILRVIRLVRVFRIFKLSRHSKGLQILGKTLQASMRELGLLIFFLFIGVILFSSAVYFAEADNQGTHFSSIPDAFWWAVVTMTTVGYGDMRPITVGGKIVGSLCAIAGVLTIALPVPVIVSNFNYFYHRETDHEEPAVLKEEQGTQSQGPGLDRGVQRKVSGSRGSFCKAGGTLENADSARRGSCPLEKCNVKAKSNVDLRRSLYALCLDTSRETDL

Q: What does the source list for `CCCS(=O)(=O)N(Cc1ccc(F)cc1)c1ccc(N2CCN(C(=O)N(C)C)CC2)c(C#N)c1` [Compound 21, 4-(2-cyano-4-(N-(4-fluorobenzyl)propyl)phenyl)-N,N-dimethylpiperazin-1-formamide]?
A: IC50 (human Kv1.3 [1]): 141 nM; IC50 (human Kv1.3 [2]): 97 nM; IC50 (human Kv1.5): 2820 nM

Q: What does the source list for `CCCS(=O)(=O)N(Cc1ccc(Cl)cc1)c1ccc(N2CCN(C(=O)OCC)CC2)c(C#N)c1` [Compound 24]?
A: PASI score ([3]; 1%, 0.3%, 0.1% applied on the back once a day for 10 days, FIG. 2A): had a significant effect on psoriasis in a dose-dependent manner; also recorded: exhibited a significant efficacy on psoriasis in a dose-dependent manner; Baker score ([3]; 1%, 0.3%, 0.1% applied on the back once a day for 10 days, HE staining day 11, FIG. 2B): had a significant effect on psoriasis in a dose-dependent manner; also recorded: exhibited a significant efficacy on psoriasis in a dose-dependent manner; pathological analysis of skin (HE×100) [3]: had a significant effect on psoriasis in a dose-dependent manner; pathological analysis of skin (HE×100) ([3]; listed as compound 24): the skin structure was intact, the granular layer was visible, the skin was partly lengthened and clubbed, no acanthosis was observed, and a small amount infiltration of inflammatory cells was observed in the dermis; IC50 (human Kv1.3 [2]): 86 nM

Q: Which results are given for `CCCS(=O)(=O)N(Cc1ccc(Cl)cc1)c1ccc(N2CCN(S(=O)(=O)N(C)C)CC2)c(C#N)c1` [Compound 44, 4-(4-(N-(4-chlorobenzyl)propanesulfonamido)-2-cyanophenyl)-N,N-dimethylpiperazin-1-sulfonamide]?
A: IC50 (human Kv1.3 [1]): 111 nM; IC50 (human Kv1.3 [2]): 96 nM; IC50 (human Kv1.5): 7900 nM

Q: Which results are given for `CCCS(=O)(=O)N(Cc1ccccc1)c1ccc(N2CCN(C(=O)OCC)CC2=O)c(C#N)c1` [Compound 61, ethyl 4-(4-(N-benzylpropanesulfonamido)2-cyanophenyl)-3-oxopiperazin-1-formate]?
A: IC50 (human Kv1.3 [1]): 130 nM; IC50 (human Kv1.3 [2]): 92 nM; IC50 (human Kv1.5): 2110 nM

Q: For `O=c1ccc2c(OCCCCOc3ccccc3)c3ccoc3cc2o1` [PAP-1], which “reduction of infiltrated CD3+ lymphocytes” value [4] is on record?
A: The value was 85%.

Q: What about the “reduction of thickness of pathological epidermal hyperplasia” value [4] of the same molecule?
A: Its value is “approximately 50%”.

Q: And the allergic contact dermatitis [5]?
A: Its allergic contact dermatitis is “can effectively inhibit allergic contact dermatitis”.

Q: With `O=c1ccc2c(OCCCCc3ccccc3)c3ccoc3cc2o1` [Psora-4] as the molecule, how does the “proteinuria and crescentic glomeruli” value [6] read?
A: Its value is “can significantly decrease proteinuria and crescentic glomeruli”.

Q: For SHK-186, which “inductive occurrence of EAE” value (EAE) is on record?
A: Its value is “can resist inductive occurrence of EAE”.

Q: And the “production of IFN-γ and IL-17” value (EAE)?
A: Its value is “inhibit production of IFN-γ and IL-17”.

Q: What about the “proliferation of Th2 TEM cells and production of cytokines” value [7] of the same molecule?
A: Its value is “can effectively inhibit proliferation of Th2 TEM cells with highly expressed Kv1.3 and production of cytokines”.
